We go through two compounds from paper PMC4735769 (Cancer Medicine, 2015).

Data set [1] in a line: topotecan plasma pharmacokinetics, total and lactone (HPLC fluorescence, noncompartmental). As to conditions: for T min: total topotecan.
Protocol: The calibration curve was linear from 0.125 to 50 ng/mL, with the regression meeting acceptable criteria, with patient samples calculated as described above.
(§1) Plasma concentration‐time data for both drugs were analyzed by noncompartmental methods using Phoenix WinNonlin 6.3 (Pharsight Corp., Mountain View, CA).
For data set [2], the system named is pediatric patients with relapsed solid tumors. Nature of the data set: phase I dose escalation of oral sorafenib and topotecan: toxicity, DLT, MTD. The following applies: osteosarcoma patient with prior doxorubicin 450 mg/m^2, on digoxin and lisinopril; cycle 2.
Protocol: Intra‐patient dose escalation was not allowed on this study. […] Total daily dose for patients was rounded to the nearest 50 mg tablet size based on patient BSA (a dosing nomogram was used to minimize inter‐patient dosing variability). Patients ingested tablets with clear liquids (2–4 ounces for children <12 and 4 ounces for ≥12 years) and while dispersion in liquid was allowed, all patients swallowed tablets.
The capsules could not be chewed, crushed, or divided and were swallowed whole. […] Vials were dispensed in light protective bags and kept refrigerated. The reconstituted formulation was drawn up in oral syringes to the prescribed volume and administered to the patient immediately after reconstitution.
This dose‐escalation study used a standard 3 + 3 design, with up to six patients being enrolled on a DL. Enrollment to subsequent DLs was determined by the number of enrolled patients, the number with DLTs, and the number at risk for DLTs.
Toxicity was graded according to the Common Terminology Criteria for Adverse Events version 4.0 (http://ctep.cancer.gov). […]
The test system of another data set is pediatric patients. The following applies: phase I single-agent pediatric trial; cited from earlier work.
Data set [3] relates to pediatric preclinical cell models. As to conditions: read-out: median IC50; cited from earlier work.
Data set [4] in a line: sorafenib plasma pharmacokinetics (LC-MS/MS, noncompartmental). Type of data set: in vivo, human.
Protocol: Plasma samples were analyzed by protein precipitation. Calibration curves, linear from 5 to 2500 ng/mL with an R ^2 of >0.99, were generated for each run, with patient sample concentrations back‐calculated from the corresponding regression line.
as §1
The mark [5] stands for this setting: Cycle 1, day 28, 150 mg/m^2 (n = 8), steady state, sorafenib alone.
Setting [6] is: Cycle 1, day 28, 200 mg/m^2 (n = 1), steady state, sorafenib alone.
The mark [7] stands for this setting: Cycle 2, day 1, 150 mg/m^2 (n = 6), steady state, with topotecan.
[8] abbreviates: Cycle 2, day 1, 200 mg/m^2 (n = 1), steady state, with topotecan.

Turning to `CC[C@@]1(O)C(=O)OCc2c1cc1n(c2=O)Cc2cc3c(CN(C)C)c(O)ccc3nc2-1` [Topotecan], the “drug–drug interaction, topotecan PK profiles in presence and absence of sorafenib” value in data set [1] (cycle 1 day 1 vs cycle 2 day 1) was “no apparent drug–drug interaction”. Moreover, the T min is recorded as 4.7 (±1.1) h in data set [1] (Cycle 1 Day 1 – 1.0 mg/m^2 (n = 3), without sorafenib) and 9.2 (±3.6) h in data set [1] (Cycle 2 Day 1 – 1.0 mg/m^2 (n = 3), sorafenib at steady state).
As usually defined, the IC50 is the midpoint of a concentration-inhibition curve. As for `CNC(=O)c1cc(Oc2ccc(NC(=O)Nc3ccc(Cl)c(C(F)(F)F)c3)cc2)ccn1` [Sorafenib], in data set [2], the “left ventricular ejection fraction on restart of sorafenib” value is on record as “ejection fraction again fell to grade 3”. Besides, the “dose-limiting toxicities (DLTs)” value in the data set with pediatric patients is “rash and hypertension”. For the same compound, the IC50 in data set [3] was 4.3 µM. In data set [4] (setting [5]), this compound yielded a C avg of 5400 ± 2600 ng/mL, a C max of 6800 ± 3500 ng/mL, a C min of 2900 ± 2500 ng/mL and a T max of 4.0 ± 3.3 h. Also, in data set [4] (setting [5]), the T min is given as 4.6 ± 3.4 h. Also, in data set [4] (setting [6]), the C avg was determined as 7600 ng/mL, the C min came out at 4900 ng/mL, the T max is 3 h and the T min was 8 h. In data set [4] (setting [7]), this compound yielded a C avg of 4500 ± 3800 ng/mL, a C min of 3100 ± 2800 ng/mL and a T min of 4.3 ± 2.7 h. Moreover, in data set [4] (setting [8]), the C avg came out at 9800 ng/mL, the C min was found to be 6700 ng/mL and the T min was 5 h. Besides, in data set [4] (cycle 1 day 28 vs cycle 2 day 1, all dose levels), the “dose-normalized AUC, exposure to sorafenib with vs without topotecan” value was “comparable amounts of exposure”.
